Test systems include KM12 colon; SN12C renal; RXF 393 renal; SW-620 colon; LOX IMVI melanoma; MDA-MB-231 breast; DU-145 prostate; OVCAR-4 ovarian; BT-549 breast; K-562 leukemia.
Test in all cases: DTP human tumour cell line panel, 48 h

Each structure is given as a SMILES string.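 Following 48 hours of exposure in 96-well plates, responses at five concentrations were used to interpolate endpoints linearly. GI50 is the concentration that inhibits growth by half. TGI: concentration producing complete growth inhibition.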

Turning to `N#Cc1c(NCc2ccccc2)nc(NCc2ccccc2)c(C#N)c1-c1ccc(O)cc1`, the GI50 was 16.8 µM with KM12 colon; 5.99 µM in the assay with SN12C renal; 39.1 µM in the assay with RXF 393 renal; 36.1 µM in the assay with SW-620 colon; 16.7 µM in the assay with LOX IMVI melanoma; 2.68 µM in the assay on MDA-MB-231 breast. The GI50 with DU-145 prostate was 32.4 µM; in the assay with OVCAR-4 ovarian, 27.7 µM; in the assay on BT-549 breast, 32.8 µM. Further, the concentration for total growth inhibition (TGI) in the assay with KM12 colon is 59.7 µM; with SN12C renal, 53.2 µM; in the assay with RXF 393 renal it was over 100 µM; in the assay with SW-620 colon, over 100 µM; in the assay on LOX IMVI melanoma it was 41.4 µM; with MDA-MB-231 breast, 33 µM. Moreover, the TGI in the assay with DU-145 prostate, with OVCAR-4 ovarian and in the assay with BT-549 breast was over 100 µM throughout.
Take `CC1CCN(Cc2ccc(NC(=O)c3cc4ccc5cccnc5c4[nH]3)cc2)CC1`: the GI50 is 5.31 µM with KM12 colon; 7.9 µM in the assay with SN12C renal; 2.18 µM in the assay with RXF 393 renal; 3.4 µM with SW-620 colon; 2.53 µM with K-562 leukemia; 5.59 µM in the assay on MDA-MB-231 breast. Moreover, the GI50 in the assay on DU-145 prostate is 8.79 µM; in the assay on OVCAR-4 ovarian, 16.5 µM; in the assay on BT-549 breast, 10.8 µM. Besides, the TGI with KM12 colon was 35.8 µM; with SN12C renal, 29.4 µM; with RXF 393 renal it was 6.26 µM; in the assay on SW-620 colon, 16.6 µM; in the assay with K-562 leukemia it was 9.07 µM; in the assay with MDA-MB-231 breast, 23.2 µM. Also, the concentration for total growth inhibition (TGI) in the assay with DU-145 prostate is over 100 µM; with OVCAR-4 ovarian, over 100 µM; in the assay on BT-549 breast, 24.3 µM.
As for `COc1cc(C2CC(c3cccc(Nc4ccnc5cc(Cl)ccc45)c3)=NN2c2ccc(Cl)cc2)cc(OC)c1OC` (stereo not drawn), the GI50 is 0.818 µM in the assay on KM12 colon; 7.24 µM in the assay on SN12C renal; 2.42 µM in the assay on RXF 393 renal; 0.666 µM with SW-620 colon; 0.647 µM with LOX IMVI melanoma; 0.755 µM in the assay with K-562 leukemia. The GI50 is 2.97 µM in the assay with MDA-MB-231 breast, 17.1 µM with DU-145 prostate and 4.63 µM in the assay on BT-549 breast. Also, the TGI with KM12 colon is 93.6 µM; in the assay on SN12C renal, over 100 µM; in the assay on RXF 393 renal, 34.4 µM; in the assay on SW-620 colon, over 100 µM; in the assay with LOX IMVI melanoma, over 100 µM; in the assay with K-562 leukemia, over 100 µM. Also, the TGI is over 100 µM in the assay on MDA-MB-231 breast, over 100 µM in the assay on DU-145 prostate and 78.6 µM in the assay with BT-549 breast.
On to `O=c1c2ccc(S(=O)(=O)c3ccc4c(=O)n5c6ccccc6nc5c5cccc3c45)c3cccc(c32)c2nc3ccccc3n12`, for which the total growth inhibition concentration (TGI) in the assay with KM12 colon is over 100 µM; with SN12C renal, over 100 µM; in the assay with RXF 393 renal, 34.5 µM; in the assay with LOX IMVI melanoma it was over 100 µM; with MDA-MB-231 breast, 59.9 µM; in the assay with DU-145 prostate, over 100 µM. In the assay on BT-549 breast, this compound showed a TGI of 50.5 µM.
As for `Nc1c(C(=O)Nc2ccccc2)sc2nc3c(cc12)CCCCC3`, the GI50 in the assay on KM12 colon was 0.52 µM; with SN12C renal, 1.88 µM; with RXF 393 renal, 0.321 µM; with SW-620 colon it was 0.443 µM; in the assay with LOX IMVI melanoma, 0.907 µM; with MDA-MB-231 breast it was 1.62 µM. Further, the GI50 is 0.619 µM in the assay on DU-145 prostate and 0.819 µM with BT-549 breast. Moreover, the TGI is over 100 µM in the assay on KM12 colon; over 100 µM in the assay on SN12C renal; 1.22 µM in the assay with RXF 393 renal; over 100 µM in the assay on SW-620 colon; over 100 µM in the assay on LOX IMVI melanoma; 42 µM with MDA-MB-231 breast. For the same compound, the results for the TGI in the assay with DU-145 prostate and with BT-549 breast were 31.4 µM and 20.1 µM, respectively.
`NC(N)=NCC1CCCCCCN1` (stereo not drawn): the TGI in the assay with KM12 colon, in the assay with SN12C renal, with RXF 393 renal, in the assay on SW-620 colon, in the assay with K-562 leukemia and in the assay on MDA-MB-231 breast was over 100 µM each time. Besides, the total growth inhibition concentration (TGI) in the assay on DU-145 prostate, with OVCAR-4 ovarian and in the assay with BT-549 breast was over 100 µM throughout.
On to `Cc1nc2c(c(N3CCCc4ccccc43)n1)CCC2`, for which the GI50 was under 0.01 µM with KM12 colon; 0.0161 µM with SN12C renal; under 0.01 µM with SW-620 colon; under 0.01 µM with LOX IMVI melanoma; under 0.01 µM with K-562 leukemia; 0.0137 µM with MDA-MB-231 breast. The GI50 in the assay on DU-145 prostate is under 0.01 µM; in the assay with OVCAR-4 ovarian, 0.0406 µM; in the assay on BT-549 breast, under 0.01 µM. The TGI in the assay on KM12 colon, in the assay with SN12C renal, in the assay with SW-620 colon, with LOX IMVI melanoma, with K-562 leukemia and with MDA-MB-231 breast was over 100 µM each time. The TGI in the assay on DU-145 prostate is over 100 µM; in the assay on OVCAR-4 ovarian, over 100 µM; with BT-549 breast, 19.6 µM.
On to `COc1cccc(/C=C/C(=O)c2ccc(SC)cc2)c1OC`, for which the GI50 with KM12 colon was 16.6 µM; in the assay on SN12C renal, 14.7 µM; in the assay with RXF 393 renal, 3.9 µM; in the assay on SW-620 colon, 18.8 µM; in the assay on K-562 leukemia, 4.97 µM; in the assay with MDA-MB-231 breast, 17.3 µM. Besides, the GI50 in the assay with DU-145 prostate is 20.4 µM; in the assay on BT-549 breast it was 20.8 µM. In addition, the TGI in the assay with KM12 colon was 33.4 µM; in the assay with SN12C renal it was 29.2 µM; in the assay with RXF 393 renal it was 11.7 µM; with SW-620 colon it was 35.7 µM; with K-562 leukemia, 64.2 µM; with MDA-MB-231 breast it was 36.4 µM. In addition, the TGI in the assay on DU-145 prostate turned out to be 40.6 µM; with BT-549 breast it was 40.5 µM.
In the case of `Cc1c(O)c(N=Nc2nc3ccccc3s2)c2ccccc2c1O`, the GI50 in the assay with KM12 colon was 23.2 µM; in the assay on SN12C renal it was 16.7 µM; in the assay on RXF 393 renal, 12.5 µM; with SW-620 colon, 25.9 µM; in the assay with LOX IMVI melanoma, 29.7 µM; in the assay on K-562 leukemia, 14.7 µM. Moreover, the GI50 is 26.5 µM with MDA-MB-231 breast, 23.4 µM in the assay with DU-145 prostate and 15.5 µM in the assay with BT-549 breast. Moreover, the TGI in the assay with KM12 colon is over 50 µM; in the assay with SN12C renal it was over 50 µM; in the assay on RXF 393 renal, 39.7 µM; with SW-620 colon it was over 50 µM; in the assay on LOX IMVI melanoma, over 50 µM; in the assay on K-562 leukemia, 48.3 µM. Further, the TGI in the assay on MDA-MB-231 breast, in the assay with DU-145 prostate and in the assay with BT-549 breast was over 50 µM each time.

In general, GI50 refers to the concentration that inhibits growth by half. Usually TGI stands for the concentration giving total growth inhibition. Read a low TGI as more potent growth arrest.

(Values after PubChem BioAssay (NCI).)
